The values that follow come from patent publication US20120035187A1 (priority 2009, published 2012).

Read-outs that look alike come from different tables or passages of the source. Marks after values point to notes of the source that are not given here.

A short description of data set [1]: Body weight of hamsters with cerebellar ataxia during administration. Type of data set: in vivo, hamster. The note with it: compared between groups administered with PBS, NK-4 and IGF-1.
Data set [2] relates to brain ischemia rat. In words: Brain ischemia (cerebral infarction model) rat: size/volume of cerebral infarction region (TTC). Type of data set: in vivo. The note with it: for increment of the volume of cerebral infarction region (in words): Experiment 13, cerebral-infarction-model rat, administered through caudal vein; for Size of cerebral infarcttion region (%): brain ischemia rats, 100 p g/kg body weight via caudal vein twice, relative to control group 1 = 100%; for Volume of cerebral infarction region (mm^3): embolus rat, caudal vein.

The nature of data set [3]: Hydroxyl radical-scavenging activity, ESR (Fenton reaction). The procedure:
Stock solutions, prepared by dissolving NK-4, NK-19, NK-53, NK-100, and NK-557 in DMSO, were respectively diluted with refined water to give concentrations of 3-folds higher than those in Table 14 and used as test sample solutions. As a positive control, a neuroprotectant, “edaravone”, commercialized as “RADICUT®” containing 3-methyl-1-phenyl-2-pyrazoline-5-one as an effective ingredient by Mitsubishi Tanabe Pharma Corporation, Osaka, Japan, was diluted with refined water to give a concentration of 3-folds higher than that in Table 14 for use. To 50 μl of refined water, 50 μl of 89 mM DMPO ([…]) commercialized by Dojindo Laboratories, Kumamoto, Japan, 50 μl of the test sample solution, and 50 μl of an aqueous solution containing 1 mM hydrogen peroxide, 1 mM FeSO4, and 1 mM DTPA, commercialized by Wako Pure Chemical Industries, Osaka, Japan, were added, mixed for 10 seconds using a vortex mixer and allowed to react in an incubator controlled at 37° for 40 seconds. After 30 seconds from completion of the reaction, the resulting reaction mixture was subjected to ESR measurement. A control solution was prepared by the same method as above except for using 50 μl of a diluted edaravone solution as a substitute for the test sample solution, and subjected to ESR measurement.
(§1) The reaction mixture for measuring hydroxyl or peroxyl radicals was poured into a flat quartz cell for ESR, set to “FREE RADICAL MONITOR JES-FR30”, an ESR apparatus commercialized by JOEL Ltd., Tokyo, Japan, and ESR was measured according to manual manner. The residual ratio of peroxyl radical (%) was determined as a relative value by defining the ESR value, obtained by using 0.1 M phosphate buffer as a substitute of the test sample solution, as 100. The results are in Tables 14 and 15. […] Therefore, the IC50 of edaravone was determined by another test using its higher concentration, and the result is also shown in Table 14. The conditions of the ESR measurement were set as follows: […]

The nature of data set [4]: Peroxyl radical-scavenging activity, ESR (AAPH). As for the experimental part:
Stock solutions, prepared by dissolving NK-4, NK-19, NK-53, NK-100, and NK-557 in DMSO, were respectively diluted with 0.1 M phosphate buffer to give concentrations of […] higher than those in Table 15 and used as test sample solutions. To 50 μl of 0.1 M phosphate buffer (pH 7.4), 50 μl of 180 mM DMPO ([…]) commercialized by Dojindo Laboratories, Kumamoto, Japan, 50 μl of any one of the test sample solutions, and 50 μl of 100 mM AAPH, commercialized by Wako Pure Chemical Industries, Osaka, Japan, were added, mixed for 10 seconds using a vortex mixer and allowed to react in an incubator controlled at 37° for two minutes and 50 seconds. After 30 seconds from completion of the reaction, the resulting reaction mixture was subjected to ESR measurement.
as §1

Data set [5] relates to microglia. In words: NO production from microglia in the presence of LPS. Type of data set: cell-based, rat. The note with it: concrete data not shown.
Data set [6] relates to ICR mice injected with amyloid β fragment. In words: Passive avoidance test, mouse injected with amyloid β fragment. The note with it: for passive avoidance test (in words): mice injected with amyloid β fragment, vs amyloid β fragment alone; for Passive avoidance reaction: mouse administered with amyloid β fragment. Type of data set: in vivo. As for the experimental part: One hundred of ICR mice (male, five weeks of age, body weight of 25 to 30 g, commercialized by Charles Liver Laboratories Japan Inc., Kanagawa, Japan) were randomly divided into 10 groups, each consisting 10 heads, and raised separately until the experiment was terminated. Mice, which had been anesthetized with chloral hydrate (administered into the abdominal cavity in an amount of 350 mg/kg body weight, commercialized by SIGMA Corporation, Tokyo, Japan), were fixed at their dorsal decubitis parts, incised along their medial heads, and after confirming born suture, 9 nmol/6 μl/mouse of a solution of amyloid β fragment (β-Amyloid25-35), represented by amino acid sequence of SEQ ID No.: 1, was injected into their brain ventricles by puncturing at 1.0-mm left side and 0.5-mm backside from bregmas with a depth of 3 mm (the administration method is referred to “Brain Research”, Vol. 706, pp. 181-193 (1996)). A micro syringe with an […] stainless needle (3 mm length) was used for injection. The injection site was determined by confirming the staining at right-and-left lateral ventricles of the frontal section, dorsal third ventricle, and ventral third ventricle by injecting an Evans' Blue solution (0.3 μg/0.3 μl) in place of the solution of amyloid β fragment. The scalps were sutured after injection, any one of the compounds was administered intraperitoneally once a day over 13 days, and the behavioral score was determined by the method described below.
The captioned test is the one for evaluating animals' avoidance behavior to the once experienced aversive stimulus (electric stimulus) as an index of memory. In this experiment, step-through test was selected as a passive avoidance test, which uses the nature of mouse who favors dark room. Using an apparatus having a bright room and a dark room connected via a door, a mouse was placed in the bright room, and measured a time required for moving into the dark room as an index of memory. The passive avoidance test was performed on 9 to 12 days after the injection of amyloid β fragment into the ventricle. On the 9th day after the administration, the mouse was placed in the bright room (1,000 lux, 30-cm in depth, 30-cm in width and 15-cm in height) for a minute, and then placed in the dark room (30-cm in depth, 30-cm in width and 15-cm in height) for two minutes to be acclimatized. On the 10th day after the administration, the mouse was further acclimatized similarly as above. On the 11th day after the administration, the mouse was placed in the center of the bright room, and when the mouse moved into the dark room, the door between the rooms was immediately closed and the electric stimulus (0.8 mA, for a second) was given to the mouse. After 24 hours (on the 12th day after the administration), the mouse was placed in the center of the bright room as had been placed in the previous day, and the time required for moving into the dark room was measured as a passive avoidance reaction. When the mouse memorized the aversive electric stimulus, the passive avoidance reaction was elongated.

Data set [7] relates to PC12-HS cells. The note with it: 6-hydroxy dopa, 24 hours.
Method: 6-Hydroxy dopa was used as a cytotoxic agent. Similarly as in Experiment 1, PC12-HS cells, which had been cultured in D-MEM medium supplemented with 10 v/v % FBS, were inoculated to 96-well microplates by 2×10^4/100 μl/well. […] Thereafter, the cells were fixed with 10% glutaraldehyde and the absorbance at 650 nm was measured by conventional dye-uptake method using methylene blue.
Setting [8] is: concentration of compound 2.5 μg/ml.
Where [9] appears, read: concentration of compound 3.13 μg/ml.
Setting [10] is: concentration of compound 6.25 μg/ml.
Where [11] appears, read: concentration of compound 12.5 μg/ml.
Setting [12] is: compound concentration 25 μg/ml.
The mark [13] stands for this setting: compound concentration 50 μg/ml.
The mark [14] stands for this setting: 50 μg/kg body weight i.p. once a day.
Setting [15] is: 500 μg/kg body weight i.p. once a day.

As to `CCN1C=CC(=CC=C(C=Cc2cc[n+](CC)c3ccccc23)c2cc[n+](CC)c3ccccc23)c2ccccc21.[I-].[I-]` [NK-4], in data set [1], the “body weight of hamsters with cerebellar A, weighed once every week up to 10-weeks of age” value was “no significant difference”. Also, in data set [2], the “increment of the volume of cerebral infarction region (in words)” value is given as “significantly suppressed”. In data set [2], the “Size of cerebral infarcttion region (%)” value turned out to be 49.4 ± 5.1 %. Also, the “Volume of cerebral infarction region (mm^3)” value is reported as 186 ± 21 mm^3 in data set [2] (dose 25 μg per kg body weight); 107 ± 21* mm^3 in data set [2] (dose 50 μg per kg body weight); 88 ± 18** mm^3 in data set [2] (dose 100 μg per kg body weight); 143 ± 26 mm^3 in data set [2] (dose 200 μg per kg body weight); 176 ± 31 mm^3 in data set [2] (dose 300 μg per kg body weight). The “IC50 (μg/ml) of hydroxyl radical-scavenging activity” value in data set [3] is 6.7 µg/mL. Also, the “Residual ratio of hydroxyl radical (%)” value in data set [3] (setting [8]) is 15 ± 1 %; in data set [3] (setting [9]), 67 ± 1 %; in data set [3] (setting [10]), 49 ± 2 %; in data set [3] (setting [11]), 26 ± 1 %. Moreover, the “IC50 (μg/ml) of peroxyl radical-scavenging activity” value in data set [4] was determined as 4.7 µg/mL. The “Residual ratio of peroxyl radical (%)” value in data set [4] (compound concentration 5 μg/ml) came out at 46 ± 9 %; in data set [4] (setting [12]) it was 17 ± 1 %; in data set [4] (setting [13]) it was 16 ± 0 %. The “suppressing NO production from microglia” value in data set [5] is recorded as “actions of suppressing NO production”. Further, the “passive avoidance test (in words)” value in data set [6] (setting [14]) and in data set [6] (setting [15]) was “significant improvement” each time. Further, the “Passive avoidance reaction” value in data set [6] (dose 50 μg/kg body weight) was determined as 135 ± 24 s; in data set [6] (dose 500 μg/kg body weight) it was 164 ± 16 s. Besides, the “suppression of cytotoxicity by 6-hydroxy dopa (in words)” value in data set [7] is listed as “significantly suppressed”. For the same compound, the “Survival-cell percentage (%)” value is listed as 59 ± 3% in data set [7] (compound 0.83 ng/ml); 65 ± 4% in data set [7] (compound 3.3 ng/ml); 69 ± 6 % in data set [7] (compound 13 ng/ml); 70 ± 6 % in data set [7] (compound 50 ng/ml); 76 ± 3 % in data set [7] (compound 200 ng/ml); 92 ± 4 % in data set [7] (compound 800 ng/ml).

On to `CCCCN1C=C/C(=C/C=C(/C=C/c2cc[n+](CCCC)c3ccccc23)c2cc[n+](CCCC)c3ccccc23)c2ccccc21` [NK-26], for which the “increment of the volume of cerebral infarction region (in words)” value in data set [2] is “significantly suppressed”. For the same compound, the “Volume of cerebral infarction region (mm^3)” value in data set [2] (dose 1 μg per kg body weight) was 194 ± 22 mm^3; in data set [2] (dose 10 μg per kg body weight), 121 ± 22* mm^3; in data set [2] (dose 100 μg per kg body weight), 169 ± 23 mm^3. The “suppressing NO production from microglia” value in data set [5] is given as “actions of suppressing NO production”. Further, the “passive avoidance test (in words)” value in data set [6] (setting [14]) and in data set [6] (setting [15]) was “significant improvement” each time. For the same compound, the “Passive avoidance reaction” value in data set [6] (dose 5 μg/kg body weight) is 84 ± 25 s; in data set [6] (dose 50 μg/kg body weight) it was 160 ± 14 s; in data set [6] (dose 500 μg/kg body weight) it was 144 ± 13 s.

Regarding `CCN1/C(=C/C=C(/C=C/c2sc3ccccc3[n+]2CC)c2sc3ccccc3[n+]2CC)Sc2ccccc21.[I-].[I-]` [NK-100], the “Size of cerebral infarcttion region (%)” value in data set [2] is on record as 74.5 ± 11.4%. Moreover, the “IC50 (μg/ml) of hydroxyl radical-scavenging activity” value in data set [3] came out at 6.6 µg/mL. Moreover, the “Residual ratio of hydroxyl radical (%)” value came to 8 ± 0 % in data set [3] (setting [8]), 68 ± 1 % in data set [3] (setting [9]), 51 ± 1 % in data set [3] (setting [10]) and 32 ± 1 % in data set [3] (setting [11]). Moreover, in data set [4], the “IC50 (μg/ml) of peroxyl radical-scavenging activity” value was 50< μg/ml. The “Residual ratio of peroxyl radical (%)” value in data set [4] (compound concentration 5 μg/ml) was 86 ± 15%; in data set [4] (setting [12]) it was 86 ± 15%; in data set [4] (setting [13]) it was 76 ± 7 %.

With `CCCN1C=CC(=CC=C(C=Cc2cc[n+](CCC)c3ccccc23)c2cc[n+](CCC)c3ccccc23)c2ccccc21.[I-].[I-]` [NK-234], the “suppressing NO production from microglia” value in data set [5] is given as “actions of suppressing NO production”. Besides, the “passive avoidance test (in words)” value in data set [6] (setting [15]) is “significant improvement”. Besides, in data set [6] (dose 500 μg/kg body weight), the “Passive avoidance reaction” value was 166 ± 8 s.

In the case of `CC[n+]1ccccc1/C=C/c1ccc(N(C)C)cc1` [NK-557], in data set [2], the “Size of cerebral infarcttion region (%)” value was 61.1 ± 14.2%. Further, the “IC50 (μg/ml) of hydroxyl radical-scavenging activity” value in data set [3] came out at 6.2 µg/mL. For the same compound, the “Residual ratio of hydroxyl radical (%)” value in data set [3] (setting [8]) came to 15 ± 6 %; in data set [3] (setting [9]), 71 ± 1 %; in data set [3] (setting [10]), 50 ± 1 %; in data set [3] (setting [11]), 30 ± 1 %. The “IC50 (μg/ml) of peroxyl radical-scavenging activity” value in data set [4] was 50< μg/ml. In addition, the “Residual ratio of peroxyl radical (%)” value was 90 ± 9% in data set [4] (compound concentration 5 μg/ml), 58 ± 5 % in data set [4] (setting [12]) and 66 ± 8 % in data set [4] (setting [13]).
